Source: the supplement of paper PMC10307832

Assays:
Experiment in all cases: relative viability (nuclei count vs DMSO), 5 days (fraction); higher = more cells survive
[1] = compound: CCn1c(-c2nonc2N)nc2c(C#CC(C)(C)O)ncc(OC[C@H]3CCCNC3)c21 + Cc1nc(Nc2ncc(C(=O)Nc3c(C)cccc3Cl)s2)cc(N2CCN(CCO)CC2)n1 [Dasatinib] (partner 0.075 µM)
Summary of the method: (§1)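 Lung cancer cell lines in 1536-well plates got either a single drug or a fixed anchor-drug dose together with five library-drug doses (not always all listed) in √10 steps, by pin tool, on the day after seeding. Nuclei were counted after 5 days, and relative viability is the treated-to-vehicle ratio of nuclei counts. Values are medians of duplicate plates.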

BAM7 + Decitabine = compound: CCOC1=CC=CC=C1N=NC2=C(NN(C2=O)C3=NC(=CS3)C4=CC=CC=C4)C [BAM7] + Nc1ncn([C@H]2C[C@H](O)[C@@H](CO)O2)c(=O)n1 [Decitabine] (partner 2 µM)
Summary of the method: as §1

[2] = compound: CCn1c(-c2nonc2N)nc2c(C#CC(C)(C)O)ncc(OC[C@H]3CCCNC3)c21 + CCNC(=O)c1noc(-c2cc(C(C)C)c(O)cc2O)c1-c1ccc(CN2CCOCC2)cc1 [Luminespib] (partner 0.01 µM)
Summary of the method: as §1

BAM7 + Bortezomib = compound: CCOC1=CC=CC=C1N=NC2=C(NN(C2=O)C3=NC(=CS3)C4=CC=CC=C4)C [BAM7] + CC(C)C[C@H](NC(=O)[C@H](Cc1ccccc1)NC(=O)c1cnccn1)B(O)O [Bortezomib] (partner 0.002 µM)
Summary of the method: as §1

Cell Line	relative viability ([1]; first compound 0.01 µM)	relative viability ([1]; first compound 0.03162 µM)	relative viability ([1]; first compound 0.1 µM)	relative viability ([1]; first compound 0.3162 µM)	relative viability ([1]; first compound 1 µM)	relative viability (BAM7 + Decitabine; first compound 0.5 µM)	relative viability (BAM7 + Decitabine; first compound 5 µM)	relative viability (BAM7 + Decitabine; first compound 15.81 µM)	relative viability (BAM7 + Decitabine; first compound 50 µM)	relative viability ([2]; first compound 0.01 µM)	relative viability ([2]; first compound 0.03162 µM)	relative viability ([2]; first compound 0.1 µM)	relative viability ([2]; first compound 0.3162 µM)	relative viability ([2]; first compound 1 µM)	relative viability (BAM7 + Bortezomib; first compound 0.5 µM)	relative viability (BAM7 + Bortezomib; first compound 5 µM)	relative viability (BAM7 + Bortezomib; first compound 15.81 µM)	relative viability (BAM7 + Bortezomib; first compound 50 µM)
NCI-H460	0.526	0.461	0.533	0.45	0.516	0.475	0.455	0.473	0.449	0.0307	0.0313	0.0273	0.031	0.0375	1.38	1.1	1.04	1.01
NCI-H520	0.223	0.2	0.181	0.159	0.134	0.54	0.478	0.484	0.525	0.188	0.222	0.188	0.238	0.182	0.625	0.75	0.441	0.708
NCI-H596	0.641	0.67	0.563	0.48	0.554	0.879	0.984	0.908	1.09	1.06	1.13	1.17	0.935	1.13	1.01	1.13	0.889	1.25
NCI-H647	0.193	0.224	0.184	0.152	0.164	0.404	0.372	0.436	0.438	0.327	0.177	0.203	0.127	0.193	1.11	0.936	1.03	1.1
NCI-H650	0.44	0.392	0.453	0.457	0.448	0.297	0.323	0.315	0.448	0.736	0.835	0.814	0.791	0.818	0.884	0.948	0.878	0.885
NCI-H661	0.996	0.86	0.9	0.751	0.764	0.597	0.579	0.611	0.579	0.89	0.95	0.947	0.965	0.995	0.807	0.738	0.656	0.827
NCI-H727	0.399	0.422	0.353	0.373	0.459	0.894	0.954	0.89	0.808	0.324	0.621	0.311	0.313	0.389	0.832	1.14	0.916	0.739
NCI-H838	0.29	0.267	0.283	0.296	0.279	0.514	0.447	0.452	0.478	0.309	0.308	0.296	0.227	0.304	0.771	0.961	0.631	1.1
NCI-H1355	0.64	0.66	0.738	0.682	0.755	0.357	0.357	0.319	0.37	0.716	0.688	0.746	0.695	0.693	1.2	1.16	1.13	1.11
